Tests used:
[1] = tested on: DIO mice; experiment: Compound 40 with exercise on metabolic profile in DIO mice; exercise endurance (tread mill) test; assay type: in vivo, male C57BL/6J mice
Method: Exercise endurance test or tread mill test (TMT): Exercise endurance test was accomplished on a motor treadmill at a low to moderate intensity of 5-20 cm/sec as maximal running speed with an intensity of 0.2 mA shock and one degree of inclination. The animals were subjected for TMT till exhaustion and different observations like distance traveled (cm), time spent on shock zone (sec), number of shocks, total time (min) were measured for all the mice in different groups.
Six week old male C57BL/6J mice were selected, acclimatized for a period of 1 week, Animals were assigned to either chow (10% kcal from fat) or high fat diet (HFD) (D12492; 60% kcal from fat), Research Diets, Inc., New Jersey, USA. After 11 weeks of the diet intervention, the HFD fed animals were assigned to specific treatment groups based upon body weight, glucose AUC during OGTT, fasting and fed blood glucose and fasting TG. The lean control mice (n=10) were fed with normal chow diet while the treatment group (n=10) and HFD Control (n=10), with and without exercise training, with high fat diet throughout the experimental period. Treatment group received Compound 40 with and without exercise training, at a dose of 10 mg/kg b.wt, once daily, po as suspension in 1% MC (methyl cellulose) as vehicle. Lean control and HFD controls animals were administered with vehicle. Exercise training was accomplished on a motor treadmill at a low to moderate intensity of 5-20 cm/sec as maximal running speed with an intensity of 0.2 mA shock and one degree of inclination. The animals were adapted to this procedure 5 days a week and different observations like distance traveled (cm), time spent on shock zone (sec), number of shocks, total time (min) will be measured for all the mice in different groups. Weekly body weight & daily feed consumption was recorded. The blood collected from tail vein was subjected for estimation of glucose and TG. OGTT was performed in 6 h fasted mice with 2 g/kg, of oral glucose challenge after 4 and 8 weeks of treatment. Then animals were euthanized and necropsied, the liver was excised immediately, weighed and taken to estimate liver triglyceride (TG). Different adipose depots were separated and weighed.

[2] = tested on: MIA PaCa-2 cells; experiment: Cell death (DNA fragmentation) in MIA PaCa-2 cells; assay type: cell-based
Method: Caspase-3 activity was measured using its ability to cleave its substrate (Ac-DEVD-R110). Increased Caspase-3 activity would lead to higher release of fluorescent R110 which was measured at 485 nm excitation and 530 nm emission. Activity of caspase-3 (as nano-moles of R110 released) was normalized to total cellular protein. […] Cell death was measured by increased levels of DNA fragments as per manufacturer's protocol (Roche) and was normalized to total cellular DNA. Data are represented as % of control.

[3] = tested on: MIA PaCa-2 cells; experiment: MIA PaCa-2 cell growth (cell count); assay type: cell-based; details: 0.1 uM and higher (up to 10.0 uM); day 2, 4 and 6
Method: Cancer is characterized by uncontrolled cell growth. Any agent which can reduce the cellular growth will have high therapeutic potentials. […] MIA PaCa-2 cells (ATCC) were seeded in a 6-well plate (20,000 cells per well) in DMEM containing 25 mM glucose, 10% FBS, 2.5% horse serum in presence or absence of different concentrations of compound-40 as mentioned. Cells were harvested on day 2, day 4 and day 6, and cell numbers were measured. MIA PaCa-2 cells were grown with or without different concentrations of compound-40 (0.0, 0.1, 0.3, 1.0, 3.0 and 10.0 uM) and cell growth was measured by cell count at different time points (day 2, 4 and 6).

[4] = tested on: hRXR α, β, or γ; experiment: Transactivation assay (RARE-Luc dual luciferase reporter in HEK-293 cells), activity relative to LG268; assay type: cell-based, human; details: 24 h, luciferase activity expressed relative to LG268
Method in brief: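 HEK-293 cells co-transfected with hRXR α, β or γ expression vector, RARE-firefly luciferase and renilla luciferase; 24 h later treated with agonist (100 nM, 300 nM, 1 uM) for 24 h. Firefly signal normalized to renilla; activity expressed relative to the RXR agonist LG268.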

[5] = tested on: DIO mice; experiment: Effect of RXR agonist on DIO mice (high fat diet); assay type: in vivo, male C57BL/6J mice
Method: Six week old male C57BL/6J mice were selected, acclimatized for a period of 1 week, Animals were assigned to either chow (10% kcal from fat) or high fat diet (HFD) (D12492; 60% kcal from fat), Research Diets, Inc., New Jersey, USA. Animals were housed in polypropylene cages and maintained at 23±1° C. at 60±10% humidity and 12 hour cycles of light and dark with free access to feed and water (ad libitum). After 11 weeks of the diet intervention, the HFD fed animals were assigned to specific treatment groups based upon body weight, glucose AUC during OGTT, fasting and fed blood glucose and fasting TG. The lean control mice (n=10) were fed with normal chow diet while the treatment group (n=10) and HFD Control (n=10) with high fat diet throughout the experimental period. Treatment group received Compound 40 at a dose of 5-20 mg/kg b.wt, once daily, po as suspension in 1% MC (methyl cellulose) as vehicle. Lean control and HFD controls animals were administered with vehicle.
Weekly body weight & daily feed consumption was recorded. The blood collected from tail vein was subjected for estimation of glucose and TG using Co-agucheck TG strip. OGTT was performed in 6 h fasted mice with 2 g/kg, of oral glucose challenge after 9 weeks of treatment.
Measurement of Thermogenesis: Body temperatures were assessed at the end of treatment period using a rectal probe. For the cold exposure experiment, mice were housed individually and transferred to a cold environment with an ambient temperature of 4° C. Temperature was measured every 15 min for 75 min and then brought to room temperature, then rectal temperature was measured for further 20 min with 10 min interval. After 10 weeks of treatment, blood was collected, from retro-orbital bleeding, for biochemical measurements. Then animals were euthanized and necropsied, the liver was excised immediately, weighed and taken to estimate liver triglyceride (TG). Different adipose depots were separated and weighed.
Animals were sacrificed after terminal measurement of fasting glycerol, free fatty acid, cholesterol, LDL levels.

[6] = 5-20 mg/kg b.wt, once daily, po
[7] = 5-20 mg/kg b.wt, once daily, po, 10 weeks
[8] = 5-20 mg/kg b.wt, once daily, po, OGTT after 9 weeks

CC1(C)CCC(C)(C)c2sc(N(CC3CC3)c3ccc(C(=O)O)cn3)nc21 [Compound 40, 6-[(Cyclopropylmethyl) (4,4,7,7-tetramethyl-4,5,6,7-tetrahydro-1,3-benzothiazol-2-yl)amino]pyridine-3-carboxylic acid]
Body weight ([1]; 10 mg/kg b.wt, once daily, po): improvement was also observed | OGTT levels ([1]; 10 mg/kg b.wt, once daily, po): significant improvement | fasting TG levels ([1]; 10 mg/kg b.wt, once daily, po): improvement was also observed | fasting glucose ([1]; 10 mg/kg b.wt, once daily, po): significant improvement | muscle endurance ([1]; DIO mice, tread mill test): significantly improves muscle endurance | cell death (DNA fragmentation) [2]: increased cell death | cell growth (cell count) [3]: significant reduction in cell growth | Activity at 300 nM ([4]; compound at 300 nM): ***** (>0.6) | Activity at 1 µM ([4]; compound at 1 µM): **** (>0.9 to <1) | HOMA-IR [5, 6]: improves HOMA-IR | UCP1 expression levels in inguinal white adipose tissues [5, 6]: significantly enhances | circulating free fatty acid levels [5, 6]: significant decrease | circulating glycerol levels [5, 6]: significant decrease | ectopic fat accumulation [5, 6]: without increasing ectopic fat accumulation | fasting TG [5, 6]: significantly reduces fasting TG | fed cholesterol levels [5, 6]: significantly reduces fed cholesterol levels | adipose depot weights [5, 7]: decrease in various adipose depot weights | body weight gain [5, 7]: significantly reduced body weight gain | glucose disposal (OGTT) [5, 8]: improves glucose disposal | hyperinsulinemia (insulin levels) [5, 8]: significantly reduces hyperinsulinemia | non-shivering thermogenesis ([5]; cold exposure 4° C., rectal temperature): significantly enhances non-shivering thermogenesis
